Source: ChEMBL document CHEMBL4371076 (J Med Chem, 2019)
Calls of active or inactive are those of the source.

Assays:
Cytochrome P450 2C9 = Cytochrome P450 2C9 (Homo sapiens, UniProt P11712); experiment: Inhibition of CYP2C9 in human liver microsomes; format: ADME
[1] = Efflux ratio of permeability in human Caco2 cells; format: ADME, cell-based; details: Caco-2
[2] = Metabolic stability in rat liver microsomes assessed as parent compound remaining at 0.5 uM after 10 mins; format: ADME, Microsome; details: read-out: Stability
[3] = target: Sodium channel protein type 9 subunit alpha (Mus musculus, UniProt Q62205); experiment: Inhibition of recombinant mouse Nav1.7 expressed in HEK293 cells at -70 mV holding potential by patch clamp electrophysiology method; format: cell-based
Sodium channel protein type 9 subunit alpha (Mus musculus, UniProt Q62205), sequence (Q62205 whole entry): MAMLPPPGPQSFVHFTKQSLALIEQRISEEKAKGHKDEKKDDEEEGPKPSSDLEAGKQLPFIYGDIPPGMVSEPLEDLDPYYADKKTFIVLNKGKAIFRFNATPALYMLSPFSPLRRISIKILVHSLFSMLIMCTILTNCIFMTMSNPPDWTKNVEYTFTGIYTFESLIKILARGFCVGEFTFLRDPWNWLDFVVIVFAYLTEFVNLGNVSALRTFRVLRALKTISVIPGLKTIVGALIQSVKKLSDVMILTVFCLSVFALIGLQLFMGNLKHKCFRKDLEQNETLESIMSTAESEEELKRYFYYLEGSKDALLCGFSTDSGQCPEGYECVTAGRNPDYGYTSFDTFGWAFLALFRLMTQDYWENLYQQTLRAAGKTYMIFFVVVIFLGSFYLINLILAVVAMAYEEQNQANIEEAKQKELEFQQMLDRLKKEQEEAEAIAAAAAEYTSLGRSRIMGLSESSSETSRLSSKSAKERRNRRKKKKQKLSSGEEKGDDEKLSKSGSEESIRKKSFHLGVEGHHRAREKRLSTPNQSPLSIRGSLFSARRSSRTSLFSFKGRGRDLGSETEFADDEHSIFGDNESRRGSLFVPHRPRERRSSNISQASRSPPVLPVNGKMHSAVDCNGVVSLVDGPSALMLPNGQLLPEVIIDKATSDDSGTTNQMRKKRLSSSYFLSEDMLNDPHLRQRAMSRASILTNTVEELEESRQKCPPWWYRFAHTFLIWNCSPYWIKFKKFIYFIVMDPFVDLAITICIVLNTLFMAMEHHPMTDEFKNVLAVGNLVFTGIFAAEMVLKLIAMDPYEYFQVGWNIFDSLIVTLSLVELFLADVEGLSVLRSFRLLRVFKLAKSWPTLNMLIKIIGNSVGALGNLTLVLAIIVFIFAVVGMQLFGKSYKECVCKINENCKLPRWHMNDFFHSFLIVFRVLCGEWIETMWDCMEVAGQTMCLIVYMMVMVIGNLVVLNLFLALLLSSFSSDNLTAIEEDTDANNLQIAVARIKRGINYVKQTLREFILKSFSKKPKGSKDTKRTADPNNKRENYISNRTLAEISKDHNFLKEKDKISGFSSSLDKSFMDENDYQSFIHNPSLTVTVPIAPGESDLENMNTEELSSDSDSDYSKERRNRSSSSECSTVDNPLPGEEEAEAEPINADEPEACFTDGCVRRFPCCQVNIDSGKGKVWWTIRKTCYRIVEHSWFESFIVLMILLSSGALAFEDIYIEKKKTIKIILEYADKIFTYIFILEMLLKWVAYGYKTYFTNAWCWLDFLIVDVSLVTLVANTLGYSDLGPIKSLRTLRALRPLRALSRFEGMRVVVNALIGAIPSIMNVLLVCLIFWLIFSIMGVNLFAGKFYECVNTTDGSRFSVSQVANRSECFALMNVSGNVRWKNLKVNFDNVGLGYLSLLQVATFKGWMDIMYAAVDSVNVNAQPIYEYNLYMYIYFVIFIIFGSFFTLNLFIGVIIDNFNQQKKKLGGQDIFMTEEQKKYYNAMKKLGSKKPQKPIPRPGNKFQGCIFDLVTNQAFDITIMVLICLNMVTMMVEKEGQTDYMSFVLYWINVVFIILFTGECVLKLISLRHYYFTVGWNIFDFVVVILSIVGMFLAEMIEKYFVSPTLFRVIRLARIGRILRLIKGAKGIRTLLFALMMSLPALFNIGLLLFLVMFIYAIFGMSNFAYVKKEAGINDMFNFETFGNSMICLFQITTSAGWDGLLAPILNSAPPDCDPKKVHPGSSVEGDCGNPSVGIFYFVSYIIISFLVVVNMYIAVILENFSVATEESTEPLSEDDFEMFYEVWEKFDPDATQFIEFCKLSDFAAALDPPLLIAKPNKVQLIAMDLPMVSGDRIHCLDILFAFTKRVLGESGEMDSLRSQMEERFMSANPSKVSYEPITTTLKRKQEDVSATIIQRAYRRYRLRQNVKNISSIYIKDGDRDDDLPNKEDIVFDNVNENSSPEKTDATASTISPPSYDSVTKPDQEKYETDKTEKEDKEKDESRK

Mus musculus [4] = experiment: Analgesic activity in CD1 mouse model of formalin-induced nociception assessed as reduction in formalin-evoked paw flinching/licking response during second phase at 30 mg/kg, po pretreated for 30 mins followed by formalin treatment and measured during 15 to 45 mins post formalin injection; format: functional, organism-based
[5] = Ratio of fraction unbound in mouse DRG neurons to IC50 for mouse DRG Nav1.7 at -70 mV holding potential by patch clamp electrophysiology method
[6] = Plasma concentration in CD1 mouse model of CFA-induced thermal hyperalgesia at 3 to 30 mg/kg, ip; format: ADME, organism-based; details: in vivo
[7] = Metabolic stability in mouse liver microsomes assessed as parent compound remaining at 0.5 uM after 10 mins; format: ADME, Microsome; details: read-out: Stability
Cytochrome P450 3A4 = Cytochrome P450 3A4 (Homo sapiens, UniProt P08684); experiment: Time-dependant inhibition of CYP3A4 in human liver microsomes; format: ADME
Cytochrome P450 3A4, sequence (P08684 whole entry): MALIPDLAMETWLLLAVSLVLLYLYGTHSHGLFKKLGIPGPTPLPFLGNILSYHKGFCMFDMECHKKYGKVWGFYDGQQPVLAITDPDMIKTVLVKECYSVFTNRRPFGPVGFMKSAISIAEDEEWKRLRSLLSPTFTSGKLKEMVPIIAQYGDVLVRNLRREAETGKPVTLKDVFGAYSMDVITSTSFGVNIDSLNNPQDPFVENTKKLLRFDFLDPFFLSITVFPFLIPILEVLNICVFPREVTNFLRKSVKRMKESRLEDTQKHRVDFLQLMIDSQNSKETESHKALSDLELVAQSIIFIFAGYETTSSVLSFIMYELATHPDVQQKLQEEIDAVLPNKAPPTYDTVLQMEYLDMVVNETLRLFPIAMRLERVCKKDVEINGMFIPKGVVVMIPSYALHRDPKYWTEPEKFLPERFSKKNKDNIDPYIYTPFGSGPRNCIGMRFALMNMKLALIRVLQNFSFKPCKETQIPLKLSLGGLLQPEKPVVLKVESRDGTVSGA

[8] = Toxicity in CD1 mouse model of formalin-induced nociception assessed as hypothermia at 30 mg/kg, po; format: organism-based; details: in vivo
Cytochrome P450 2C19 = Cytochrome P450 2C19 (Homo sapiens, UniProt P33261); experiment: Inhibition of CYP2C19 in human liver microsomes; format: ADME
Cytochrome P450 2C19, sequence (P33261 whole entry): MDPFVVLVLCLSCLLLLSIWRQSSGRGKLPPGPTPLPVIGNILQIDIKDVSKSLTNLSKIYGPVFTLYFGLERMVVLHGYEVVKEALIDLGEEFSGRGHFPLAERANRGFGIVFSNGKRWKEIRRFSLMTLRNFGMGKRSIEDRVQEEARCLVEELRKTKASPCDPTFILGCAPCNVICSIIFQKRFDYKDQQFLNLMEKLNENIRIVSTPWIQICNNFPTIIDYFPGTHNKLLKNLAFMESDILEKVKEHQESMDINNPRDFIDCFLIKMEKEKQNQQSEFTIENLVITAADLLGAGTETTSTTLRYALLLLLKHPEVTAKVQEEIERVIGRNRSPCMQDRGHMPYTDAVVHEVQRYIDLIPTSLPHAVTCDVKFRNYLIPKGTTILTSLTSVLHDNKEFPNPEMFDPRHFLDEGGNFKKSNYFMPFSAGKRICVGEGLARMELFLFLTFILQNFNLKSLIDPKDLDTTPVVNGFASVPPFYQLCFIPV

[9] = Unbound plasma concentration in CD1 mouse model of CFA-induced thermal hyperalgesia at 3 to 30 mg/kg, ip; format: ADME, organism-based; details: in vivo
[10] = Drug uptake in DRG neurons of CD1 mouse model of formalin-induced nociception at 30 mg/kg, po; format: ADME, organism-based, DRG neuron; details: in vivo, read-out: Drug uptake
Mus musculus [11] = organism: Mus musculus; experiment: Reduction in mechanoreceptor-mediated afferent transmission in mouse sural nerve assessed as decrease in mechanically elicited afferent firing at 30 to 100 uM measured at 20 mins post dose at 1.6 to 980 mN threshold pressure; format: functional, tissue-based
[12] = Permeability of the compound at pH 7.4 by PAMPA; format: ADME; details: read-out: permeability
[13] = target: T1, Sodium channel protein type 9 subunit alpha (Homo sapiens, UniProt Q15858); experiment: Inhibition of recombinant human Nav1.7 expressed in HEK293 cells at -70 mV holding potential by patch clamp electrophysiology method; format: cell-based
Mus musculus [14] = experiment: Reduction in mechanoreceptor-mediated afferent transmission in mouse assessed as effect on sural nerve mechanosensitivity by measuring decrease in mechanically elicited afferent firing at 30 mg/kg, ip measured at 90 to 120 mins post dose at 98 to 980 mN threshold pressure; format: functional, organism-based
[15] = Fraction unbound in rat DRG neurons; format: ADME
[16] = target: T1, Sodium channel protein type 9 subunit alpha; experiment: Inhibition of recombinant human Nav1.7 expressed in HEK293 cells assessed as dissociation time constant at -120 mV holding potential by patch clamp electrophysiology method; format: cell-based
[17] = Plasma concentration in CD1 mouse model of formalin-induced nociception at 30 mg/kg, ip; format: ADME, organism-based; details: read-out: Cp, in vivo
Mus musculus [18] = experiment: Analgesic activity in CD1 mouse model of formalin-induced nociception assessed as reduction in formalin-evoked paw flinching/licking response during first phase at 3 to 10 mg/kg, ip pretreated for 30 mins followed by formalin treatment and measured during first 5 mins post formalin injection; format: functional, organism-based
[19] = Plasma concentration in CD1 mouse model of chronic constriction injury-induced cold allodynia at 30 mg/kg, ip dosed at 5 weeks post surgery and measured 60 mins post dose; format: ADME, organism-based
[20] = Toxicity in CD1 mouse model of formalin-induced nociception assessed as prostration or sedation at 30 mg/kg, ip; format: organism-based; details: in vivo
[21] = Plasma concentration in CD1 mouse model of chronic constriction injury-induced cold allodynia at 10 mg/kg, ip dosed at 5 weeks post surgery and measured 60 mins post dose; format: ADME, organism-based
[22] = Unbound plasma concentration in CD1 mouse model of chronic constriction injury-induced cold allodynia at 30 mg/kg, ip dosed at 5 weeks post surgery and measured 60 mins post dose; format: ADME, organism-based; details: in vivo, 1 h
[23] = Unbound plasma concentration in CD1 mouse model of chronic constriction injury-induced cold allodynia at 10 mg/kg, ip dosed at 5 weeks post surgery and measured 60 mins post dose; format: ADME, organism-based; details: in vivo, 1 h
Mus musculus [24] = experiment: Antinociceptive activity in CD1 mouse model of chronic constriction injury-induced cold allodynia assessed as increase in latency in response to cold at 30 mg/kg, ip dosed 30 mins before testing starting at 5 weeks after surgery relative to control; format: functional
Mus musculus [25] = experiment: Analgesic activity in CD1 mouse model of formalin-induced nociception assessed as reduction in formalin-evoked paw flinching/licking response during second phase at 3 to 10 mg/kg, ip pretreated for 30 mins followed by formalin treatment and measured during 15 to 45 mins post formalin injection; format: functional, organism-based
[26] = Unbound drug level in DRG neurons of CD1 mouse model of formalin-induced nociception at 30 mg/kg, ip; format: ADME, organism-based, DRG neuron; details: in vivo
Mus musculus [27] = experiment: Effect on thermal response latency in contralateral paw in CD1 mouse model of CFA-induced thermal hyperalgesia at 30 mg/kg, ip administered 72 hrs post CFA challenge and measured at 60 mins post dose by Hargreave's test; format: organism-based; details: in vivo, 1 h
[28] = Unbound plasma concentration in CD1 mouse model of chronic constriction injury-induced cold allodynia at 3 mg/kg, ip dosed at 5 weeks post surgery and measured 60 mins post dose; format: ADME, organism-based; details: in vivo, 1 h
[29] = Unbound plasma concentration in CD1 mouse model of formalin-induced nociception at 30 mg/kg, ip; format: ADME, organism-based; details: in vivo
[30] = Toxicity in CD1 mouse model of formalin-induced nociception assessed as hypothermia at 30 mg/kg, ip; format: organism-based; details: in vivo
[31] = Plasma concentration in CD1 mouse model of chronic constriction injury-induced cold allodynia at 3 mg/kg, ip dosed at 5 weeks post surgery and measured 60 mins post dose; format: ADME, organism-based
Mus musculus [32] = experiment: Analgesic activity in CD1 mouse model of formalin-induced nociception assessed as reduction in formalin-evoked paw flinching/licking response during second phase at 30 mg/kg, ip pretreated for 30 mins followed by formalin treatment and measured during 15 to 45 mins post formalin injection; format: functional, organism-based
[33] = target: Sodium channel protein type 4 subunit alpha (Homo sapiens, UniProt P35499); experiment: Inhibition of human Nav1.4 expressed in HEK293 cells after 600 secs at -60 mV holding potential by ion works barracuda population patch clamp method; format: cell-based
Mus musculus [34] = experiment: Analgesic activity in CD1 mouse model of formalin-induced nociception assessed as reduction in formalin-evoked paw flinching/licking response during first phase at 30 mg/kg, ip pretreated for 30 mins followed by formalin treatment and measured during first 5 mins post formalin injection; format: functional, organism-based
[35] = target: Sodium channel protein type 2 subunit alpha (Homo sapiens, UniProt Q99250); experiment: Inhibition of human Nav1.2 expressed in HEK293 cells after 600 secs at -60 mV holding potential by ion works barracuda population patch clamp method; format: cell-based

Cytochrome P450 2C9, sequence (P11712 whole entry): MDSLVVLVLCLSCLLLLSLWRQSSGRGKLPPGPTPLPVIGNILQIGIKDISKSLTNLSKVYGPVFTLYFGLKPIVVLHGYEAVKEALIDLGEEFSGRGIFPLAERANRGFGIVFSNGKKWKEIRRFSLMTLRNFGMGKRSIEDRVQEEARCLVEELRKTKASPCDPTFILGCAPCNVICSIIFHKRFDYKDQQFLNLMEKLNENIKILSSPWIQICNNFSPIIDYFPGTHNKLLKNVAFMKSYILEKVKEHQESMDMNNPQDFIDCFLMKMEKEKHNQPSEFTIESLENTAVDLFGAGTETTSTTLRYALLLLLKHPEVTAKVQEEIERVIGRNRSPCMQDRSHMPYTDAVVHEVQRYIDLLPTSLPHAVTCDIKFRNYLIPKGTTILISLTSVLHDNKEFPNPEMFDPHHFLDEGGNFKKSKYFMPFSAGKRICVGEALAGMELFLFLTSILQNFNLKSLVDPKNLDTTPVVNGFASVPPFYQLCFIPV

Structure (SMILES)	IC50 (Cytochrome P450 2C9) [µM]	efflux ratio [1]	remaining at 10 min, 0.5 µM [2] [%]	IC50 [3] [µM]	Ratio [5]	concentration [6] [µM]	remaining at 10 min, 0.5 µM [7] [%]	TDI (Cytochrome P450 3A4)	IC50 (Cytochrome P450 2C19) [µM]	Cp(f) [9] [µM]	Papp [12] [×10⁻⁶ cm/s]	IC50 [13] [µM]	Activity (Mus musculus [14])	TIME [16] [h]	further results
CC(C)COc1ccc(-c2cn(C)c3cc(C(=O)NS(C)(=O)=O)c(F)cc23)cn1	27	3.1	98	0.115	5.5	38	99	Not Active	4	0.532	16.4	0.025	Active	0.0275	Activity (Mus musculus [4]): inactive; Activity [8]: Non-Toxic; concentration [10]: 0.99 µM; Activity (Mus musculus [11]): inactive; fraction unbound [15]: 0.039
CC(C)COc1ncc(-c2cn(C)c3cc(C(=O)NS(C)(=O)=O)ccc23)cc1Cl	9.9	> 5.5	66	0.035	8.7	63	100	Not Active	28	0.126	21.6	0.008	Active	0.0125	concentration [17]: 59 µM; Activity (Mus musculus [18]): inactive; concentration at 1 h [19]: 68 µM; Activity [20]: Non-Toxic; concentration at 1 h [21]: 27 µM; Cp(f) [22]: 0.136 µM; Cp(f) [23]: 0.054 µM; Activity (Mus musculus [24]): 25%; Activity (Mus musculus [25]): inactive; Drug uptake(free) [26]: 95 nM; Activity (Mus musculus [27]): Non-Toxic; Cp(f) [28]: 0.0066 µM; Cp(f) [29]: 0.118 µM; Activity [30]: Non-Toxic; concentration at 1 h [31]: 3.3 µM; Activity (Mus musculus [32]): Active; IC50 [33]: 4.8 µM; Activity (Mus musculus [34]): inactive; IC50 [35]: 16 µM
